The data set concerns Botryococcus sp. colonies. The experiment in a line: Flotation (buoyancy) of bottom-dwelling colonies as visual assay of hydrocarbon content. It is filed as cell-based. From the text: Previous investigations (Ohmori, et al. 1984; and Wolf, et al, 1985) verified that colonies containing greater than 20% of dry weight as botryococcenoid hydrocarbons were buoyant and that colonies containing less than 5% hydrocarbons remained sunken at the bottom of the culture vessel, providing a visual method for selecting cells with commercial-grade hydrocarbons. […] Colonies in hydrocarbon-enhancement were placed […] without supplemental carbon dioxide gas to eliminate artifacts of flotation from bubbles. Environmental conditions were 150 μE/m^2/sec PAR to 1700 μE/m^2/sec PAR at 25-37° Centigrade. Nutrient chemicals were reagent grade in all laboratory-scale experiments. In field-scale tests, fertilizer grade chemical nutrients were provided. In order to minimize or eliminate ammonia, nitrates were optionally kiln dried prior to admixture. Supplementation with 0.1% to 100% carbon dioxide gas or carbonate (e.g., 10 mg/ml sodium bicarbonate or potassium bicarbonate) increased hydrocarbon synthesis substantially, especially, when under the highest light intensities with soluble elements of the present invention.
Stock cultures were taken from bottom-dwelling colonies that had been maintained in conventional liquid culture media, typified by approximately 1 ppm to 10 ppm phosphate, 0.01 ppm to 0.3 ppm iron, and 0.01 ppm to 0.5 ppm zinc, as for example, in Showa medium and other phycological media. Aqueous nutrient solutions were placed in sterile culture tubes and flasks and steam sterilized twice for 60 minutes. Following inoculation and growth, colonies were concentrated with overnight settling and approximately one million submerged green colonies were collected from the bottom of culture vessels. Equal volumes were resuspended into replicate culture vessels with equal volumes of enhancement media in the highest light intensities available in preparation for experiments. Control cultures were transferred into equal volumes of Showa medium and placed side by side under identical conditions as controls.

`[Zn+2]` [Zn^+2]: under “100 ppm Zn^+2, approximately two to eight weeks”, the “colour of colonies after long exposure” value is listed as “color change of the colonies toward amber”.
On to phosphates, for which, where the note is “200 mM to 300 mM phosphates, approximately two to eight weeks”, the “colour of colonies after long exposure” value is “color change of the colonies toward amber”. Also, for the setting “after two weeks or more in 300 mM phosphate”, the “state of colonies after long exposure” value is “remained floating, but cleared to amber”. Besides, the “time until bottom-dwelling colonies began to rise to the surface” value (in water with up to 300 mM phosphates) is at most 5 h. The “total phosphate concentration that stimulated the rise of colonies to the surface” value (subtractive matrix analysis, most rapid in presence of soluble Mg, Mn, Fe and Zn^+2) was “greater than 80 mM”.

The values above are taken from US20090087889A1, “Methods and compositions for growth hydrocarbons in botryococcus sp” (priority 2005, published 2009).
